Legend:
Assay type in all cases: cell-based
D10G4.1 Th2 clones = experiment: IL-4 release by Th2 clones; details: stimulated with anti-CD3 Ab (0.1 and 0.5 μg/ml) or conalbumin pulsed APC
[1] = test system: calcium dependent pathway; experiment: Proliferation by the calcium dependent (PMA+Lonomycin) pathway; details: 48 h
Method: Cells were seeded at 5×10^4 cells/well in flat-bottom 96-well plates. The various stimuli and Caerulomycin A were added at the initiation of the cultures. After 48 h, [^3H]-thymidine (1 μCi/well) was added, and its incorporation was measured 12 h later.

naïve CD4^+ T cells = experiment: Proliferation of naïve CD4+ T cells
Method: Examples establishing the role of Caerulomycin A [isolated from a novel species of Actinoalloteichus] in inducing immunosuppression based on the following: • Splenocytes of BALB/c mice were stimulated with either ConA (1 μg/ml and 2 μg/ml) or LPS (5 μg/ml and 10 μg/ml) and were cultured with different concentrations of Caerulomycin A (0.0003-0.1 μg/ml). After 48 h, the cultures were pulsed with 0.5 μCi of [^3H]-thymidine and harvested 14 h later by automatic cell harvester. Radioactivity incorporated was measured by liquid scintillation counting. • Antigen ovalbumin (100 μg/ml) emulsified in Freund's complete adjuvant was injected in a group consisting of 5 BALB/c mice. […] Radioactivity incorporated was measured by liquid scintillation. The culture supernatants were collected after 48 h and cytokines were measured by ELISA. • Immunosuppressive effect of different doses of Caerulomycin A was monitored on naïve CD4^+ T cells, antigen reactive CD4^+ T cells, Th2 clone and Th1 hybridoma. […] Radioactivity incorporated was measured by liquid scintillation. • Immunosuppressive effect of Caerulomycin A on MLR reaction. […] After 4 days, the cultures were pulsed with 1 μCi of [^3H]-thymidine and harvested 16 h later and radioactivity incorporated was measured by liquid scintillation counting. • In vivo immunosuppressive effect of Caerulomycin A on the proliferation of T cells. […]

COc1cc(/C=N/O)nc(-c2ccccn2)c1 [Caerulomycin A, (E)-4-methoxy-2,2′-bipyridine-6-carbaldehyde oxime]
release of IL-4 (D10G4.1 Th2 clones): suppressed the release | proliferation of calcium dependent pathway [1]: significantly inhibited the proliferation | in vitro proliferation of naïve CD4+ T cells (naïve CD4^+ T cells): suppression
